How the values were obtained:
scuticociliates [1] = experiment: Scuticociliates extermination effect of candidate substances in MEM medium; format: cell-based
Description: CHSE-214 cell line into which scuticociliates were inoculated was cultured in advance. The CHSE-214 cell line was cultured in an incubator using an MEM medium at 22° C. Scuticociliates inoculated into the cell line proliferated for 3 days by which the number reaches to be capable of analyzing in vitro anti-scuticociliates effect. Scuticociliates that feed on the cell line and sufficiently grow were mixed with the candidate substance and the activity of scuticociliates was measured.
In order to analyze the antiparasitic activity of the above 19 types of candidate substances of scuticociliates extermination drugs, scuticociliates were cultured for 3 days, and 100 μl (1×10^5) was dispensed into each well of 96 wells. The candidate substances were diluted by each concentration and the final volume was dispensed into 100 μl. Thereafter, the two were mixed and finally made into 200 μl.

scuticociliates [2] = experiment: Scuticociliates extermination effect of candidate substances in seawater medium; format: cell-based
Description: For this, scuticociliates were cultured in CHSE-214 cell line (using MEM medium), and then scuticociliates were collected and centrifuged with sterilized seawater or artificial seawater (20‰) to replace them with a seawater medium. Each of 100 μl (1×10^5) was dispensed into each well of 96 wells, followed by further culture for 30 minutes. The candidate substances diluted in seawater to have a volume of 100 μl per each concentration were mixed with scuticociliates to have the final volume of 200 μl and cultured for 4 hour.

[3] = seawater medium, 4 hour, Dosage 500 ppm
[4] = seawater medium, 4 hour, Dosage 1000 ppm
[5] = seawater medium, 4 hour, Dosage 1500 ppm
[6] = seawater medium, 4 hour, Dosage 2000 ppm
[7] = seawater medium, 4 hour, Dosage 2500 ppm
[8] = seawater medium, 4 hour, Dosage 3000 ppm
[9] = seawater medium, 4 hour, Dosage 3500 ppm
[10] = seawater medium, 4 hour, Dosage 4000 ppm

Q: With `CCCOc1ccc2nc(NC(=O)OC)[nH]c2c1` [Oxibendazole] as the compound, how does the “Survival or Death of scuticociliates (activity and shape, microscope)” value (“Survival or Death of scuticociliates” below) (scuticociliates [1]; MEM medium, Dosage 500 ppm) read?
A: Survival

Q: And the “Survival or Death of scuticociliates” value (scuticociliates [1]; MEM medium, Dosage 1000 ppm)?
A: Survival

Q: What about the “Survival or Death of scuticociliates” value (scuticociliates [1]; MEM medium, Dosage 1500 ppm) of the same compound?
A: Δ

Q: And the “Survival or Death of scuticociliates” value (scuticociliates [1]; MEM medium, Dosage 2000 ppm)?
A: Δ

Q: And the “Survival or Death of scuticociliates” value (scuticociliates [1]; MEM medium, Dosage 2500 ppm)?
A: Death

Q: What about the “Survival or Death of scuticociliates” value (scuticociliates [1]; MEM medium, Dosage 3000 ppm) of the same compound?
A: Death

Q: And the “Survival or Death of scuticociliates” value (scuticociliates [1]; MEM medium, Dosage 3500 ppm)?
A: Death

Q: And the “Survival or Death of scuticociliates” value (scuticociliates [1]; MEM medium, Dosage 4000 ppm)?
A: Death

Q: What about the “Survival or Death of scuticociliates” value (scuticociliates [2]; [3]) of the same compound?
A: Survival

Q: And the “Survival or Death of scuticociliates” value (scuticociliates [2]; [4])?
A: Survival

Q: What about the “Survival or Death of scuticociliates” value (scuticociliates [2]; [5]) of the same compound?
A: Δ

Q: And the “Survival or Death of scuticociliates” value (scuticociliates [2]; [6])?
A: Δ

Q: And the “Survival or Death of scuticociliates” value (scuticociliates [2]; [7])?
A: Δ

Q: What about the “Survival or Death of scuticociliates” value (scuticociliates [2]; [8]) of the same compound?
A: Δ

Q: And the “Survival or Death of scuticociliates” value (scuticociliates [2]; [9])?
A: Death

Q: What about the “Survival or Death of scuticociliates” value (scuticociliates [2]; [10]) of the same compound?
A: Death

Q: Which “Survival or Death of scuticociliates” value (scuticociliates [1]; MEM medium, Dosage 500 ppm) does the source give for `C1CNCCN1` [Piperazine] here?
A: Survival

Q: What about the “Survival or Death of scuticociliates” value (scuticociliates [1]; MEM medium, Dosage 1000 ppm) of the same compound?
A: Survival

Q: What about the “Survival or Death of scuticociliates” value (scuticociliates [1]; MEM medium, Dosage 1500 ppm) of the same compound?
A: Survival

Q: And the “Survival or Death of scuticociliates” value (scuticociliates [1]; MEM medium, Dosage 2000 ppm)?
A: Survival

Q: What about the “Survival or Death of scuticociliates” value (scuticociliates [1]; MEM medium, Dosage 2500 ppm) of the same compound?
A: Survival

Q: What about the “Survival or Death of scuticociliates” value (scuticociliates [1]; MEM medium, Dosage 3000 ppm) of the same compound?
A: Survival

Q: What about the “Survival or Death of scuticociliates” value (scuticociliates [1]; MEM medium, Dosage 3500 ppm) of the same compound?
A: Survival

Q: And the “Survival or Death of scuticociliates” value (scuticociliates [1]; MEM medium, Dosage 4000 ppm)?
A: Survival

Q: What about the “Survival or Death of scuticociliates” value (scuticociliates [2]; [3]) of the same compound?
A: Survival

Q: What about the “Survival or Death of scuticociliates” value (scuticociliates [2]; [4]) of the same compound?
A: Survival

Q: What about the “Survival or Death of scuticociliates” value (scuticociliates [2]; [5]) of the same compound?
A: Survival

Q: What about the “Survival or Death of scuticociliates” value (scuticociliates [2]; [6]) of the same compound?
A: Survival

Q: What about the “Survival or Death of scuticociliates” value (scuticociliates [2]; [7]) of the same compound?
A: Survival

Q: What about the “Survival or Death of scuticociliates” value (scuticociliates [2]; [8]) of the same compound?
A: Survival

Q: What about the “Survival or Death of scuticociliates” value (scuticociliates [2]; [9]) of the same compound?
A: Survival

Q: What about the “Survival or Death of scuticociliates” value (scuticociliates [2]; [10]) of the same compound?
A: Survival

Q: `CN1CCCN=C1/C=C/c1cccs1` [Pyrantel] was tested. Which “Survival or Death of scuticociliates” value (scuticociliates [1]; MEM medium, Dosage 500 ppm) did it give?
A: Survival

Q: What about the “Survival or Death of scuticociliates” value (scuticociliates [1]; MEM medium, Dosage 1000 ppm) of the same compound?
A: Survival

Q: And the “Survival or Death of scuticociliates” value (scuticociliates [1]; MEM medium, Dosage 1500 ppm)?
A: Survival

Q: What about the “Survival or Death of scuticociliates” value (scuticociliates [1]; MEM medium, Dosage 2000 ppm) of the same compound?
A: Survival

Q: What about the “Survival or Death of scuticociliates” value (scuticociliates [1]; MEM medium, Dosage 2500 ppm) of the same compound?
A: Survival

Q: What about the “Survival or Death of scuticociliates” value (scuticociliates [1]; MEM medium, Dosage 3000 ppm) of the same compound?
A: Survival

Q: What about the “Survival or Death of scuticociliates” value (scuticociliates [1]; MEM medium, Dosage 3500 ppm) of the same compound?
A: Survival

Q: And the “Survival or Death of scuticociliates” value (scuticociliates [1]; MEM medium, Dosage 4000 ppm)?
A: Survival

Q: And the “Survival or Death of scuticociliates” value (scuticociliates [2]; [3])?
A: Survival

Q: And the “Survival or Death of scuticociliates” value (scuticociliates [2]; [4])?
A: Survival

Q: And the “Survival or Death of scuticociliates” value (scuticociliates [2]; [5])?
A: Survival

Q: What about the “Survival or Death of scuticociliates” value (scuticociliates [2]; [6]) of the same compound?
A: Survival

Q: And the “Survival or Death of scuticociliates” value (scuticociliates [2]; [7])?
A: Survival

Q: What about the “Survival or Death of scuticociliates” value (scuticociliates [2]; [8]) of the same compound?
A: Survival

Q: What about the “Survival or Death of scuticociliates” value (scuticociliates [2]; [9]) of the same compound?
A: Survival

Q: And the “Survival or Death of scuticociliates” value (scuticociliates [2]; [10])?
A: Survival

Q: What does the source list for `CO[C@H]1C[C@H](O[C@@H]2/C(C)=C/C[C@@H]3C[C@@H](C[C@]4(CC[C@H](C)[C@@H](C5CCCCC5)O4)O3)OC(=O)[C@@H]3C=C(C)/C(=N/O)[C@H]4OC/C(=C\C=C\[C@@H]2C)[C@]43O)O[C@@H](C)[C@@H]1O` [Selamectin]?
A: Survival or Death of scuticociliates (activity and shape, microscope) (scuticociliates [1]): Survival and Δ and Death; Survival or Death of scuticociliates (activity and shape, microscope) (scuticociliates [2]): Survival and Δ and Death

Reference: patent publication US9956204B2, “Composition for exterminating scuticociliates in fish including mebendazole” (NATIONAL INSTITUTE OF FISHERIES SCIENCE, priority 2016, dated 2018)
